A short description of assay [1]: Binding affinity to Escherichia coli J96 FimH lectin domain (Phe1 to Thr158) expressed in Escherichia coli C43 (DE3) by surface plasmon resonance analysis.
The nature of assay [2]: Binding affinity to Escherichia coli J96 FimH lectin domain (Phe1 to Thr158) expressed in Escherichia coli C43 (DE3) by isothermal titration calorimetry assay.

For the compound `CCCCCCCO[C@H]1O[C@H](CO)[C@@H](O)[C@H](O)[C@@H]1O`, the Kd turned out to be 3.1 nM in assay [1] and 7.3 nM in assay [2].
In turn, `COCC#Cc1ccc(O[C@H]2O[C@H](CO)[C@@H](O)[C@H](O)[C@@H]2O)cc1` yielded a Kd in assay [2] of 59.5 nM.
As to `OCC#Cc1ccc(O[C@H]2O[C@H](CO)[C@@H](O)[C@H](O)[C@@H]2O)cc1`, binding in assay [1] was characterised by a dissociation constant (Kd) of 36.9 nM.
Still for that read-out and setting: then `CCCSCCCO[C@H]1O[C@H](CO)[C@@H](O)[C@H](O)[C@@H]1O`, with 14 nM; and `O=C(C[C@H]1O[C@H](CO)[C@@H](O)[C@H](O)[C@@H]1O)Nc1nc2ccccc2s1`, with 59 nM; and `O=C(C[C@H]1O[C@H](CO)[C@@H](O)[C@H](O)[C@@H]1O)Nc1nc2ccccc2[nH]1`, with 4200 nM.
On the same count and under the same terms, then `O=C(C[C@H]1O[C@H](CO)[C@@H](O)[C@H](O)[C@@H]1O)Nc1ccccc1`, with 372 nM; and `O=C(C[C@H]1O[C@H](CO)[C@@H](O)[C@H](O)[C@@H]1O)Nc1ccc(O)cc1`, with 328 nM.
Same read-out and setting: with `O=C(C[C@H]1O[C@H](CO)[C@@H](O)[C@H](O)[C@@H]1O)Nc1ccc(Cl)cc1` the figure was 113 nM; with `COc1ccc(C#CCO[C@H]2O[C@H](CO)[C@@H](O)[C@H](O)[C@@H]2O)cc1`, 53 nM.
With `CCCCO[C@H]1O[C@H](CO)[C@@H](O)[C@H](O)[C@@H]1O` [BUTYLALPHAMAN], the Kd in assay [1] turned out to be 151 nM; in assay [2], 154 nM.
